The results in this text go back to patent publication US20240287070A1, “FUSED HETEROCYCLIC DERIVATIVES” (Janssen Sciences Ireland Unlimited Company, priority 2021, published 2024).

Molecules are shown by their SMILES.

The subject of series [1] is HBV (HepG2.117 cell line, inducibly HBV producing). Description: Anti-HBV activity, intracellular HBV DNA by real-time PCR in HepG2.117 cell line. It is filed as cell-based, hepatitis B virus. To be noted: HepG2.117 cells, 3 days of treatment. Summed up: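 Readout is intracellular HBV DNA, measured by real-time PCR with HBV-specific primers and probe after 3 days of exposure to serial compound dilutions. Cells are the stable HepG2.117 line, where HBV replication is induced in the absence of doxycycline.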
For orientation: Quantitative PCR measures a nucleic acid by following its amplification.

The test system of series [2] is HepG2 or HepG2.117 cells. Description: Cytotoxicity, ATPlite Luminescence Assay. To be noted: 3-days incubation unless marked with *. It is filed as cell-based, human. A digest of the protocol: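 Incubate with compound for 3 or 4 days, then assess cell viability via ATPlite luminescence.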
For orientation: In ATP-based viability assays light output follows the ATP content of the culture.

Series [3] in a line: Human liver microsome stability. It is filed as in vitro ADME. To be noted: 1 μM compound, NADPH 1 mM, 37° C., 0-60 min; for HLM Metabolism t1/2: pooled human liver microsomes 0.5 mg/mL; for half-life at 1 μM: human, pooled human liver microsomes, pH 7.4, pooled human liver microsomes 0.5 mg/mL, read-out: HLM Metabolism t1/2. A digest of the protocol: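 Half-life came from elimination rate constant (negative slope of ln compound/internal standard area ratio over time), measured by cassette LC-MS after acetonitrile quench. Human liver microsome reactions, one replicate per compound, were initiated with NADPH (1 mM final) and sampled at six points up to 60 min.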
(In general: Liver microsomes are a subcellular fraction often used to study metabolism.)

What is called EC50 is the midpoint of the concentration-response curve. In general, CC50 refers to the concentration that lowers cell viability or growth by half. A low value points to greater toxicity to the cells. As to `C[C@@H]1Cc2nn3c(c2CN1C(=O)c1ccc(Cl)c(C(F)(F)F)c1)C(=O)N([C@@H](C)c1ccc([S@]2(=O)=NCCC2)nc1)C[C@H]3C` (relative stereo) [Compound 30D, (3R,7R)-2-(4-chloro-3-(trifluoromethyl)benzoyl)-3,7-dimethyl-9-((S*)-1-(6-((S*)-1-oxido-4,5-dihydro-3H-116-isothiazol-1-yl)pyridin-3-yl)ethyl)-1,2,3,4,8,9-hexahydropyrido[4′,3′:3,4]pyrazolo[1,5-a]pyrazin-10(7H)-one], in series [1], the EC50 was 0.047 µM. Besides, the half-maximal cytotoxic concentration (CC50) in series [2] was over 50 µM. The “HLM Metabolism t1/2” value in series [3] was found to be 0.255 h.
In series [1], `CC(c1cc(F)c(=O)n(C)c1)N1C[C@@H](C)n2nc3c(c2C1=O)CN(C(=O)c1ccc(Cl)c(Cl)c1)[C@H](C)C3` (relative stereo) [Compound 45A, (3R,7R)-2-(3,4-dichlorobenzoyl)-9-((R*)-1-(5-fluoro-1-methyl-6-oxo-,6-dihydropyridin-3-yl)ethyl)-3,7-dimethyl-1,2,3,4,8,9-hexahydropyrido[4′,3′:3,4]pyrazolo [1,5-a]pyrazin-10(7H)-one] registered an EC50 of 0.57 µM. This molecule displayed a cytotoxic concentration (CC50) in series [2] of over 50 µM. In addition, the “HLM Metabolism t1/2” value in series [3] was over 3 h.
The molecule `CC(c1ccc(C(C)(C)O)nc1)N1C[C@@H](C)n2nc3c(c2C1=O)CN(C(=O)c1ccc(Cl)c(Cl)c1)[C@H](C)C3` (single isomer, unassigned) [Compound 2B, (3R,7R)-2-(3,4-dichlorobenzoyl)-9-((S*)-1-(6-(2-hydroxypropan-2-yl)pyridin-3-yl)ethyl)-3,7-dimethyl-1,2,3,4,8,9-hexahydropyrido[4′,3′:3,4]pyrazolo[1,5-a]pyrazin-10(7H)-one] gave an EC50 in series [1] of 0.015 µM. Further, the CC50 in series [2] is over 50 µM. The “HLM Metabolism t1/2” value in series [3] stood at 2.3 h.
In the case of `CC(c1cnc(C2CC2)cn1)N1C[C@@H](C)n2nc3c(c2C1=O)CN(C(=O)c1ccc(Cl)c(Cl)c1)[C@H](C)C3` (single isomer, unassigned) [Compound 3A, (3R,7R)-9-((R*)-1-(5-cyclopropylpyrazin-2-yl)ethyl)-2-(3,4-dichlorobenzoyl)-3,7-dimethyl-1,2,3,4,8,9-hexahydropyrido[4′,3′:3,4]pyrazolo[1,5-a]pyrazin-10(7H)-one], a half-maximal effect in series [1] (EC50) was put at 0.068 µM. In addition, it took 33.7 µM to reach half-maximal cytotoxicity in series [2] (CC50). For the same molecule, in series [3], the half-life at 1 μM was over 3 h.
In turn, `CC(c1cnc(C2CC2)cn1)N1C[C@@H](C)n2nc3c(c2C1=O)CN(C(=O)c1ccc(Cl)c(Cl)c1)[C@H](C)C3` (single isomer, unassigned) [Compound 3B, (3R,7R)-9-((S*)-1-(5-cyclopropylpyrazin-2-yl)ethyl)-2-(3,4-dichlorobenzoyl)-3,7-dimethyl-1,2,3,4,8,9-hexahydropyrido[4′,3′:3,4]pyrazolo[1,5-a]pyrazin-10(7H)-one] came in with a concentration for a half-maximal effect (EC50) in series [1] of 0.023 µM. Further, half-maximal cytotoxicity in series [2] (CC50) was put at 16.4 µM. In series [3], the “HLM Metabolism t1/2” value stood at 2.22 h.
For the molecule `Cc1ncc(C(C)N2C[C@@H](C)n3nc4c(c3C2=O)CN(C(=O)c2ccc(Cl)c(Cl)c2)[C@H](C)C4)cn1` (single isomer, unassigned) [Compound 4B, (3R,7R)-2-(3,4-dichlorobenzoyl)-3,7-dimethyl-9-((S*)-1-(2-methylpyrimidin-5-yl)ethyl)-1,2,3,4,8,9-hexahydropyrido[4′,3′:3,4]pyrazolo[1,5-a]pyrazin-10(7H)-one], the response in series [1] was half-maximal at 0.057 µM (EC50). Further, the CC50 in series [2] was over 50 µM. Moreover, in series [3], the “HLM Metabolism t1/2” value is over 3 h.
Turning to `CC(c1ccc(-n2cncn2)nc1)N1C[C@@H](C)n2nc3c(c2C1=O)CN(C(=O)c1ccc(Cl)c(Cl)c1)[C@H](C)C3` (single isomer, unassigned) [Compound 5B, (3R,7R)-9-((S*)-1-(6-(1H-1,2,4-triazol-1-yl)pyridin-3-yl)ethyl)-2-(3,4-dichlorobenzoyl)-3,7-dimethyl-1,2,3,4,8,9-hexahydropyrido[4′,3′:3,4]pyrazolo[1,5-a]pyrazin-10(7H)-one], the concentration giving a half-maximal response (EC50) in series [1] was found to be 0.017 µM. In series [2], half-maximal cytotoxicity (CC50) was put at 28.4 µM. Also, the “HLM Metabolism t1/2” value in series [3] came out at 2.08 h.
Regarding `Cc1ccc(C(C)N2C[C@@H](C)n3nc4c(c3C2=O)CN(C(=O)c2ccc(Cl)c(Cl)c2)[C@H](C)C4)nn1` (single isomer, unassigned) [Compound 6B, (3R,7R)-2-(3,4-dichlorobenzoyl)-3,7-dimethyl-9-((S*)-1-(6-methylpyridazin-3-yl)ethyl)-1,2,3,4,8,9-hexahydropyrido[4′,3′:3,4]pyrazolo[1,5-a]pyrazin-10(7H)-one], a half-maximal effect in series [1] (EC50) was put at 0.065 µM. The molecule also displayed a CC50 in series [2] of over 50 µM. Also, the “HLM Metabolism t1/2” value in series [3] is over 3 h.
Turning to `CC(c1cnc(C(F)(F)F)cn1)N1C[C@@H](C)n2nc3c(c2C1=O)CN(C(=O)c1ccc(Cl)c(Cl)c1)[C@H](C)C3` (single isomer, unassigned) [Compound 7A, (3R,7R)-2-(3,4-dichlorobenzoyl)-3,7-dimethyl-9-((R*)-1-(5-(trifluoromethyl)pyrazin-2-yl)ethyl)-1,2,3,4,8,9-hexahydropyrido[4′,3′:3,4]pyrazolo[1,5-a]pyrazin-10(7H)-one], the EC50 in series [1] turned out to be 0.52 µM. Moreover, in series [2], it took 44.8 µM to reach half-maximal cytotoxicity (CC50). Also, the half-life at 1 μM in series [3] was over 3 h.
Molecule `CC(c1cnc(C(F)(F)F)cn1)N1C[C@@H](C)n2nc3c(c2C1=O)CN(C(=O)c1ccc(Cl)c(Cl)c1)[C@H](C)C3` (single isomer, unassigned) [Compound 7B, (3R,7R)-2-(3,4-dichlorobenzoyl)-3,7-dimethyl-9-((S*)-1-(5-(trifluoromethyl)pyrazin-2-yl)ethyl)-1,2,3,4,8,9-hexahydropyrido[4′,3′:3,4]pyrazolo[1,5-a]pyrazin-10(7H)-one] yielded an EC50 in series [1] of 0.048 µM. Also, it took 16.9 µM to reach half-maximal cytotoxicity in series [2] (CC50). The “HLM Metabolism t1/2” value in series [3] was over 3 h.
As to `CC(c1ccc(C(C)(C)O)cc1)N1C[C@@H](C)n2nc3c(c2C1=O)CN(C(=O)c1ccc(Cl)c(Cl)c1)[C@H](C)C3` (single isomer, unassigned) [Compound 8B, (3R,7R)-2-(3,4-dichlorobenzoyl)-9-((S*)-1-(4-(2-hydroxypropan-2-yl)phenyl)ethyl)-3,7-dimethyl-1,2,3,4,8,9-hexahydropyrido[4′,3′:3,4]pyrazolo[1,5-a]pyrazin-10(7H)-one], in series [1], the concentration giving a half-maximal response (EC50) came to 0.009 µM. Further, the CC50 in series [2] is 18.7 µM. Also, the “HLM Metabolism t1/2” value in series [3] was over 3 h.
The corresponding values for `CC(c1ccc(N2CCCC2=O)cc1)N1C[C@@H](C)n2nc3c(c2C1=O)CN(C(=O)c1ccc(Cl)c(C#N)c1)[C@H](C)C3` (single isomer, unassigned) [Compound 9B, 2-Chloro-5-((3R,7R)-3,7-dimethyl-10-oxo-9-((S*)-1-(4-(2-oxopyrrolidin-1-yl)phenyl)ethyl)-1,2,3,4,7,8,9,10-octahydropyrido[4′,3′:3,4]pyrazolo[1,5-a]pyrazine-2-carbonyl)benzonitrile] are 0.02 µM, over 50 µM and 1.83 h.
Regarding `CC(c1ccc(-n2cncn2)cc1)N1C[C@@H](C)n2nc3c(c2C1=O)CN(C(=O)c1ccc(Cl)c(C#N)c1)[C@H](C)C3` (single isomer, unassigned) [Compound 11B, 5-((3R,7R)-9-((S*)-1-(4-(1H-1,2,4-triazol-1-yl)phenyl)ethyl)-3,7-dimethyl-10-oxo-1,2,3,4,7,8,9,10-octahydropyrido[4′,3′:3,4]pyrazolo[1,5-a]pyrazine-2-carbonyl)-2-chlorobenzonitrile], the EC50 in series [1] was determined as 0.032 µM. This molecule gave a cytotoxic concentration (CC50) in series [2] of over 50 µM. In addition, in series [3], the “HLM Metabolism t1/2” value is over 3 h.
As to `CC(c1ccc(C(F)(F)F)nc1)N1C[C@@H](C)n2nc3c(c2C1=O)CN(C(=O)c1ccc(Cl)c(C#N)c1)[C@H](C)C3` (single isomer, unassigned) [Compound 12B, 2-Chloro-5-((3R,7R)-3,7-dimethyl-10-oxo-9-((S*)-1-(6-(trifluoromethyl)pyridin-3-yl)ethyl)-1,2,3,4,7,8,9,10-octahydropyrido[4′,3′:3,4]pyrazolo[1,5-a]pyrazine-2-carbonyl)benzonitrile], in series [1], the concentration giving a half-maximal response (EC50) was 0.068 µM. The same molecule returned a cytotoxic concentration (CC50) in series [2] of over 50 µM. In series [3], the “HLM Metabolism t1/2” value is over 3 h.
`CNC(=O)C1(Oc2ccc(C(C)N3C[C@@H](C)n4nc5c(c4C3=O)CN(C(=O)c3ccc(Cl)c(C#N)c3)[C@H](C)C5)cc2)CC1` (single isomer, unassigned) [Compound 13B, 1-(4-((S*)-1-((3R,7R)-2-(4-chloro-3-cyanobenzoyl)-3,7-dimethyl-10-oxo-1,2,3,4,7,8-hexahydropyrido[4′,3′:3,4]pyrazolo[1,5-a]pyrazin-9(10H)-yl)ethyl)phenoxy)-N-methylcyclopropanecarboxamide] returned an EC50 in series [1] of 0.091 µM. The molecule also had a CC50 in series [2] of over 50 µM. Further, in series [3], the “HLM Metabolism t1/2” value stood at 2.15 h.
`CC(c1ccc(C2(O)CC2)cc1)N1C[C@@H](C)n2nc3c(c2C1=O)CN(C(=O)c1ccc(Cl)c(C#N)c1)[C@H](C)C3` (single isomer, unassigned) [Compound 14B, 2-Chloro-5-((3R,7R)-9-((S*)-1-(4-(1-hydroxycyclopropyl)phenyl)ethyl)-3,7-dimethyl-10-oxo-1,2,3,4,7,8,9,10-octahydropyrido[4′,3′:3,4]pyrazolo[1,5-a]pyrazine-2-carbonyl)benzonitrile]: the EC50 in series [1] came out at 0.015 µM. For the same molecule, in series [2], the 50% cytotoxic concentration (CC50) is over 50 µM. Also, in series [3], the “HLM Metabolism t1/2” value is 1.17 h.
